From patent publication US8486931B2, “Substituted oxindole compounds” (Abbott GmbH & Co. KG, priority 2007, dated 2013)
Structures can show the parent of a compound that is named as a salt.

Target: T1, human vasopressin V1b receptor (Homo sapiens, UniProt P47901)
T1 construct: expressed in transfected cells; host or cells: CHO-K1 (cell line hV1b-3H2_CHO), membrane preparation
T1 sequence (P47901 1-424): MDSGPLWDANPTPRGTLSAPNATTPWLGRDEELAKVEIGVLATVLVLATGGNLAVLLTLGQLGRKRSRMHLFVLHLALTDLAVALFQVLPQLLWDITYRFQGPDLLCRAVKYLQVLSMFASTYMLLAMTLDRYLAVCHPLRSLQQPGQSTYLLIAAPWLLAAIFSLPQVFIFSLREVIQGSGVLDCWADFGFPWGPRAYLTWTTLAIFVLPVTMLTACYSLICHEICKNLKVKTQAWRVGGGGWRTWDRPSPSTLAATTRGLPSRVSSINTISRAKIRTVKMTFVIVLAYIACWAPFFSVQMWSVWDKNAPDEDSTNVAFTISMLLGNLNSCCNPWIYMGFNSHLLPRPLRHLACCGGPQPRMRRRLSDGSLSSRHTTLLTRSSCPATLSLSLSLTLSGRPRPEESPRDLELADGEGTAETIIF
Assay: Vasopressin V1b receptor binding assay
Details: membranes from CHO-K1 cells with stably expressed human V1b receptors, 1.5 nM 3H-AVP displacement; with more than one stereogenic center: the diastereomer with stronger affinity
Method: Such compounds can be investigated in suitable assays which establish the affinity to a receptor, with the affinity constant Ki represening a measure of the potency of the compounds and a smaller value representing a larger potency. The compounds of the invention were tested in the following receptor binding assay for their affinity for the V1 b receptor.
Vasopressin V1 b Receptor Binding Assay:
The test substances were dissolved in a concentration of 10^−2 M in DMSO (dimethyl sulfoxide) and further diluted to 5×10^−4 M to 5×10^−9 M in DMSO. This series of DMSO predilutions was diluted 1:10 with assay buffer. The substance concentration was again diluted 1:5 in the assay mixture (2% DMSO in the mixture).
The membrane pellet was again homogenized and centrifuged as described and then taken up in 50 mM Tris-HCl, pH 7.4, homogenized and stored in aliquots frozen in liquid nitrogen at −190° C.
The incubation buffer was: 50 mM Tris, 10 mM MgCl2, 0.1% BSA, pH 7.4.
The nonspecific binding was determined with 1 μM AVP (Bachem #H1780). All determinations were carried out as triplicate determinations. After incubation (60 minutes at room temperature), the free radioligand was removed by vacuum filtration (Skatron cell harvester 7000) through Whatman GF/B glass fiber filter mats, and the filters were transferred into scintillation vials. The liquid scintillation measurement took place in a Tricarb model 2000 or 2200CA instrument (Packard). Conversion of the measured cpm into dpm was carried out with the aid of a standard quench series.
The binding parameters were calculated by nonlinear regression in SAS.
The above assay was used to measure the affinities of the compounds of the invention for the human vasopressin V1 b receptor and to determine with affinity constants (Ki).

| Compound | Ki |
| --- | --- |
| CCOc1ccccc1C1(N2CCN(c3ccncc3)CC2)C(=O)N(S(=O)(=O)c2ccc(C)cn2)c2ccc(C#N)cc21 (single isomer, unassigned; (+)) [Example 61, (+)-5-Cyano-3-(2-ethoxyphenyl)-1-(5-methylpyridine-2-sulfonyl)-3-(4-pyridin-4-yl-piperazin-1-yl)-2,3-dihydro-1H-indol-2-one] | < 10 nM |
| CCOc1ccc(C)cc1C1(N2CCN(c3ccncc3)CC2)C(=O)N(S(=O)(=O)c2ccc(OC)cn2)c2ccc(C#N)cc21 (racemic) [Example 169, (±)-5-Cyano-3-(2-ethoxy-5-methyl-phenyl)-1-(5-methoxy-pyridine-2-sulfonyl)-3-(4-pyridin-4-yl-piperazin-1-yl)-2,3-dihydro-1H-indol-2-one] | < 10 nM |
| CCOc1cc(F)ccc1C1(N2CCN(c3ccncc3)CC2)C(=O)N(S(=O)(=O)c2cccc3cccnc23)c2ccc(C#N)cc21 (racemic) [Example 46, (±)-5-Cyano-3-(2-ethoxy-4-fluorophenyl)-3-(4-pyridin-4-ylpiperazin-1-yl)-1-(quinoline-8-sulfonyl)-2,3-dihydro-1H-indol-2-one] | 10 to 50 nM |
| O=C1N(S(=O)(=O)c2cccc3cccnc23)c2ccc(Cl)cc2C1(c1ccccn1)N1CCN(c2ccncc2)CC1 (racemic) [Example 8, (±)-5-Chloro-3-pyridin-2-yl-3-(4-pyridin-4-ylpiperazin-1-yl)-1-(quinoline-8-sulfonyl)-1,3-dihydroindol-2-one] | 10 to 50 nM |
| COc1ccccc1C1(N2CCN(c3ccncc3)CC2)C(=O)N(S(=O)(=O)c2cccc3cccnc23)c2ccc(C#N)cc21 (racemic) [Example 43, (±)-5-Cyano-3-(2-methoxyphenyl)-3-(4-pyridin-4-ylpiperazin-1-yl)-1-(quinoline-8-sulfonyl)-2,3-dihydro-1H-indol-2-one] | 10 to 50 nM |
| COc1ccccc1C1(N2CCN(c3ccncc3)CC2)C(=O)N(S(=O)(=O)c2cccc3cccnc23)c2cc(C)ccc21 (racemic) [Example 39, (±)-3-(2-Methoxyphenyl)-6-methyl-3-(4-pyridin-4-ylpiperazin-1-yl)-1-(quinoline-8-sulfonyl)-1,3-dihydroindol-2-one] | 10 to 50 nM |
| CCOc1nc(Cl)ccc1C1(N2CCC(N3CCN(C)CC3)CC2)C(=O)N(S(=O)(=O)c2ccc(OC)cn2)c2ccc(C#N)cc21 (racemic) [Example 170, (±)-5-Cyano-3-(6-chloro-2-ethoxy-pyridin-3-yl)-1-(5-methoxy-pyridine-2-sulfonyl)-3-[4-(4-methyl-piperazin-1-yl)-piperidin-1-yl]-2,3-dihydro-1H-indol-2-one] | < 10 nM |
| CCOc1nc(Cl)ccc1C1(N2CCCN(c3ccnc(C)c3)CC2)C(=O)N(S(=O)(=O)c2ccc(OC)cn2)c2ccc(C#N)cc21 (racemic) [Example 177, (±)-5-Cyano-3-(6-chloro-2-ethoxy-pyridin-3-yl)-1-(5-methoxy-pyridine-2-sulfonyl)-3-[4-(2-methyl-pyridin-4-yl)-[1,4]diazepan-1-yl]-2,3-dihydro-1H-indol-2-one] | < 10 nM |
| CCOc1ccccc1C1(N2CCN(c3ccncc3)CC2)C(=O)N(S(=O)(=O)c2cccc3c(C)ccnc23)c2ccc(C#N)cc21 (racemic) [Example 16, (±)-5-Cyano-3-(2-ethoxyphenyl)-1-(4-methylquinoline-8-sulfonyl)-3-(4-pyridin-4-yl-piperazin-1-yl)-2,3-dihydro-1H-indol-2-one] | < 10 nM |
| CCOc1ccc(OC)cc1C1(N2CCN(c3ccnc(CC)c3)CC2)C(=O)N(S(=O)(=O)c2ccc(OC)cn2)c2ccc(C#N)cc21 (racemic) [Example 146, (±)-5-Cyano-3-(2-ethoxy-5-methoxy-phenyl)-3-[4-(2-ethyl-pyridin-4-yl)-piperazin-1-yl]-1-(5-methoxy-pyridine-2-sulfonyl)-2,3-dihydro-1H-indol-2-one] | < 10 nM |
| CCOc1ccc(OC)cc1C1(N2CCN(c3ccnc(C)c3)CC2)C(=O)N(S(=O)(=O)c2cccc3cccnc23)c2ccc(C#N)cc21 (racemic) [Example 54, (±)-5-Cyano-3-(2-ethoxy-5-methoxyphenyl)-3-[4-(2-methylpyridin-4-yl)piperazin-1-yl]-1-(quinoline-8-sulfonyl)-2,3-dihydro-1H-indol-2-one] | < 10 nM |
| CCOc1nc(Cl)ccc1C1(N2CCN(c3ccncc3)CC2)C(=O)N(S(=O)(=O)c2ccc(OC)cn2)c2ccc(C#N)cc21 (racemic) [Example 36, (±)-5-Cyano-3-(6-chloro-2-ethoxypyridin-3-yl)-1-(5-methoxypyridine-2-sulfonyl)-3-(4-pyridin-4-ylpiperazin-1-yl)-2,3-dihydro-1H-indol-2-one] | < 10 nM |
| CCOc1ccccc1C1(N2CCN(c3ccnc(C(C)C)c3)CC2)C(=O)N(S(=O)(=O)c2ccc(OC)cn2)c2ccc(C#N)cc21 (racemic) [Example 150, (±)-5-Cyano-3-(2-ethoxy-phenyl)-3-[4-(2-isopropyl-pyridin-4-yl)-piperazin-1-yl]-1-(5-methoxy-pyridine-2-sulfonyl)-2,3-dihydro-1H-indol-2-one] | 10 to 50 nM |
| CCOc1cc(OC)ccc1C1(N2CCN(c3ccncc3)CC2)C(=O)N(S(=O)(=O)c2cccc3cccnc23)c2ccc(C#N)cc21 (racemic) [Example 157, (±)-5-Cyano-3-(2-ethoxy-4-methoxy-phenyl)-3-(4-pyridin-4-yl-piperazin-1-yl)-1-(quinoline-8-sulfonyl)-2,3-dihydro-1H-indol-2-one] | 10 to 50 nM |
| CCOc1cc(OC)ccc1C1(N2CCN(c3ccnc(C(C)C)c3)CC2)C(=O)N(S(=O)(=O)c2ccc(OC)cn2)c2ccc(C#N)cc21 (racemic) [Example 175, (±)-5-Cyano-3-(2-ethoxy-4-methoxy-phenyl)-3-[4-(2-isopropyl-pyridin-4-yl)-piperazin-1-yl]-1-(5-methoxy-pyridine-2-sulfonyl)-2,3-dihydro-1H-indol-2-one] | < 10 nM |
| CCOc1ccc(OC)cc1C1(N2CCN(c3ccnc(C)c3)CC2)C(=O)N(S(=O)(=O)c2cccc3c(C)ccnc23)c2ccc(C#N)cc21 (racemic) [Example 18, (±)-5-Cyano-3-(2-ethoxy-5-methoxyphenyl)-3-[4-(2-methylpyridin-4-yl)piperazin-1-yl]-1-(4-methylquinoline-8-sulfonyl)-2,3-dihydro-1H-indol-2-one] | < 10 nM |
| COc1ccccc1C1(N2CCN(c3ccncc3)CC2)C(=O)N(S(=O)(=O)c2cccc3cccnc23)c2ccc(Cl)cc21 (racemic) [Example 37, (±)-5-Chloro-3-(2-methoxyphenyl)-3-(4-pyridin-4-ylpiperazin-1-yl)-1-(quinoline-8-sulfonyl)-1,3-dihydroindol-2-one] | < 10 nM |
| CCOc1ccc(OC)cc1C1(N2CCN(c3ccnc(C)c3)CC2)C(=O)N(S(=O)(=O)c2ccc(OC)cn2)c2ccc(C#N)cc21 (single isomer, unassigned; (+)) [Example 164, (+)-5-Cyano-3-(2-ethoxy-5-methoxy-phenyl)-1-(5-methoxy-pyridine-2-sulfonyl)-3-[4-(2-methyl-pyridin-4-yl)-piperazin-l-yl]-2,3-dihydro-1H-indol-2-one] | < 10 nM |
| (+)-5-Cyano-3-(6-chloro-2-ethoxy-pyridin-3-yl)-1-(5-methoxy-pyridine-2-sulfonyl)-3-[4-(2-methyl-pyridin-4-yl)-piperazin-1-yl]-2,3-dihydro-1H-indol-2-one [Example 152] | < 10 nM |
| CCOc1ccc(OC)cc1C1(N2CCN(c3ccncc3)CC2)C(=O)N(S(=O)(=O)c2ccc(OC)c3cccnc23)c2ccc(C#N)cc21 (single isomer, unassigned; (+)) [Example 162, (+)-5-Cyano-3-(2-ethoxy-5-methoxy-phenyl)-1-(5-methoxy-quinoline-8-sulfonyl)-3-(4-pyridin-4-yl-piperazin-1-yl)-2,3-dihydro-1H-indol-2-one] | 10 to 50 nM |
| CCOc1ccc(OC)cc1C1(N2CCN(C3CCNCC3)CC2)C(=O)N(S(=O)(=O)c2ccc(OC)c3cccnc23)c2ccc(C#N)cc21 (racemic) [Example 69, (±)-5-Cyano-3-(2-ethoxy-5-methoxyphenyl)-1-(5-methoxyquinoline-8-sulfonyl)-3-(4-piperidin-4-ylpiperazin-1-yl)-2,3-dihydro-1H-indol-2-one hydrochloride] | 10 to 50 nM |
